Laboratory results published in patent US5047242A, “Azadirachtin derivative insecticides” (Native Plant Institute ("NPI"), priority 1987, dated 1991).
“Also recorded” adds a separate entry of the source.

How the values were obtained:
[1] = system: Heliothis virescens; assay: Artificial diet feeding bioassay, mortality and growth inhibition in first-instar larvae; assay type: in vivo, Heliothis virescens (tobacco budworm); conditions: for EC50 (concentration causing 50% growth inhibition): Table 1, first-instar Heliothis virescens larvae, artificial diet, parentheses = 95% confidence limits
Text: The results of the growth inhibitory and lethal activities of azadirachtin and these 8 derivatives when fed in an artificial diet to Heliothis virescens larvae are shown in Table 1. Similar to the results of Morgan, E. D., in "Natural pesticides from the Neem tree (Azadirachta indica A. Juss), Schmutterer, H., et al., Eds., Proc. First International Neem Conference (Rottach-Egern, 1980), German Agency for Technical Corporation,Eschborn, Germany, 1982, pps. 43-52 (hereinafter "Morgan"), neither deacetylation nor hydrogenation of the carbon-carbon double bond of the dihydrofuran ring moiety of azadirachtin had any significant effect on activity of the compound against H. virescens.
Mortality and growth inhibition in first-instar Heliothis
virescens larvae fed azadirachtin and eight derivatives in an
artificial diet (I. Kubo and J. A. Klocke, In: Plant Resistance to
Insects (P. A. Helin, Ed.), ACS Symposium Series 208, American Chemical
Society, Washington, D.C. (1983), pp. 329-346.).^a
^b LC50 values are the concentrations (ppm) causing 50%
^c EC50 values are the concentrations (ppm) causing 50% growth
^d Numbers in parentheses are the 95% confidence limits determined
using the methods of Litchfield and Wilcoxon, J. Pharmacol. Exp. Ther.
An artificial diet feeding bioassay with neonate larvae of tobacco budworm (Heliothis virescens) and fall armyworm (Spodoptera frugiperda) was used as previously described (Kubo and Klocke, 1983) to detect insecticidal activities in the plant extracts to monitor fractionation, and to determine the potency of the isolated constituents and derivatives. Potency was determined either as the effective concentration (EC50) of added material that is necessary to reduce larval growth to 50% of the control values or as the lethal concentration (LC50) of added material that is necessary to kill 50% of the treated larvae. EC50 and LC50 values were determined from log probit paper and analyzed statistically by the method of Litchfield and Wilcoxon, supra.

[2] = system: Heliothis virescens; assay: Oral injection of fifth-instar larvae, pupal and adult development (non-irradiated compounds); assay type: in vivo; conditions: for Number Adults / Number Adults Deformed / Unsuccessful Larvae-Pupae (number) / Unsuccessful Pupae-Adult (number) / Adults (%) / Adults Deformed (%) / Pupae (%) / Unsuccessful Larvae-Pupae (%) / Unsuccessful Pupae-Adult (%) / Number Pupae: 1.0 microgram injected orally; for Number Adults / Number Adults Deformed / Unsuccessful Larvae-Pupae (number) / Unsuccessful Pupae-Adult (number) / Number Pupae: fifth-instar; for Number Adults / Number Adults Deformed / Unsuccessful Larvae-Pupae (number) / Unsuccessful Pupae-Adult (number) / inhibition of pupation (in words) / Number Pupae: non-irradiated; for Adults (%) / Adults Deformed (%) / Pupae (%) / Unsuccessful Larvae-Pupae (%) / Unsuccessful Pupae-Adult (%): % of larvae; for inhibition of pupation (in words): 1.0 μg per os
Description: (§1) Individual larvae were injected per os on the first day of the fifth instar with 1.0 μg of either irradiated or non-irradiated compounds dissolved in 1.0 μl of 75% aqueous ethanol.
Table 2: Successful and unsuccessful pupal and adult development of
fifthinstar Heliothis Virescens larvae injected orally with 1.0 microgram
of either azadirachtin, 3deacetylazadirachtin, 22,23dihydroazadirachtin,
or 2',3',22,23tetrahydroazadirachtin.

[3] = system: Heliothis virescens; assay: Relative activity of UV-irradiated compounds in inhibiting pupal development of fifth-instar larvae; assay type: in vivo; conditions: for Relative activity, inhibition of pupal development: relative to non-irradiated counterpart; for activity retained after 90 h of exposure to UV radiation (in words): 90 h UV
Description: (§2) Azadirachtin, 3-deacetylazadirachtin, 22,23-dihydroazadirachtin, and 2',3',22,23-tetrahydroazadirachtin (1.0 mg/ml absolute ethanol) were placed individually in capped quartz NMR tubes (5×180 mm) and were irradiated with two UV germicidal lights (GE, G30T8, 200-280 nm, 30W) 1.8 m from the source at room temperature for up to 400 h. The controls were identical samples protected from exposure to UV radiation by wrapping with aluminum foil. At selected time intervals, aliquots from both the controls (non-irradiated) and irradiated samples were removed for high-performance liquid chromatography (HPLC) analysis and bioassay (vide infra).
as §1
Table 3: Relative activity of azadirachtin, 3deacetylaza-dirachtin,
22,23dihydroazadirachtin, and 2',3',22,23tetrahydroazadirachtin, all of
which had been exposed for 15, 30, 90, 200, and 400 hours to UV radiation
inhibiting the pupal development of fifthinstar Heliothis virescens
(§3) larvae. Relative activity is defined as the percentage of larvae injected

[4] = system: Heliothis virescens; assay: Relative activity of UV-irradiated compounds in inhibiting adult development of fifth-instar larvae; assay type: in vivo; conditions: for Relative activity, inhibition of adult development: relative to non-irradiated counterpart
Description: as §2, §1
Table 4: Relative activity of azadirachtin, 3deacetylaza-dirachtin,
22,23dihydroazadirachtin, 2',3',22,23tetrahydroaza-dirachtin, all of whic
had been exposed for 15, 30, 90, 200, and 400 hours to UV radiation, in
inhibiting the adult development of fifthinstar Heliothis virescens
as §3
relative to the percentage injected with its nonirradiated counterpart

[5] = UV stability in ethanol by reversed phase HPLC; assay type: physicochemical; conditions: for UV lability (in words): UV irradiation, HPLC
Description: Stability of Azadirachtin derivatives was determined as follows:
as §2
Analytical reversed phase HPLC was performed on a phenyl (5μm) column run isocratically with acetonitrile-water (3:7) (Yamasaki et al.) Peaks were detected at 214 nm. The irradiated samples were compared with their corresponding non-UV-irradiated controls by measuring the height of the peak eluting at the appropriate Rt for each irradiated compound relative to each one's non-irradiated control. Results are expressed as the percent of the initial sample concentration remaining relative to the control. Each time point was done in at least triplicate fashion.

[6] = system: insect; conditions: Kubo & Klocke; cited from earlier work
[7] = system: insects; conditions: literature; cited from earlier work

| SMILES | EC50 (concentration causing 50% growth inhibition) [1] | Number Adults [2] [Number] | Number Adults Deformed [2] [Number] | Unsuccessful Larvae-Pupae (number) [2] [Number] | Unsuccessful Pupae-Adult (number) [2] [Number] | Adults (%) [2] [%] | Adults Deformed (%) [2] [%] | Pupae (%) [2] [%] | Unsuccessful Larvae-Pupae (%) [2] [%] | Unsuccessful Pupae-Adult (%) [2] [%] | inhibition of pupation (in words) [2] | Relative activity, inhibition of pupal development ([3]; 15 h UV exposure) [%] | Relative activity, inhibition of pupal development ([3]; 30 h UV exposure) [%] | Relative activity, inhibition of pupal development ([3]; 90 h UV exposure) [%] | ability to inhibit pupation after UV (in words) ([3]; 200 h UV) | Relative activity, inhibition of pupal development ([3]; 200 h UV exposure) [%] | ability to inhibit pupation after UV (in words) ([3]; 400 h UV) | Relative activity, inhibition of pupal development ([3]; 400 h UV exposure) [%] | Relative activity, inhibition of adult development ([4]; 15 h UV exposure) [%] | Relative activity, inhibition of adult development ([4]; 30 h UV exposure) [%] | further results |
| --- | --- | --- | --- | --- | --- | --- | --- | --- | --- | --- | --- | --- | --- | --- | --- | --- | --- | --- | --- | --- | --- |
| CCC(C)C(=O)OC1CC(OC(C)=O)C2(C(=O)OC)COC3C2C12COC(O)(C(=O)OC)C2C(C)(C12OC1(C)C1CC2OC2OCCC21O)C3O (stereo not shown) [2',3',22,23-tetrahydroazadirachtin] | 0.08 (0.05-0.13) ppm | 0 | 0 | 6 | 1 | 0 | 0 | 7.4 | 4.4 | 0.7 | equally effective | 99.4 | 103.7 | 99.7 | most active in inhibiting pupation | 108.0 | some loss in activity; also recorded: still more active than the other test compounds | 69.1 | 100.0 | 100.0 | insecticidal activity (in words) ([1]; Heliothis virescens feeding): full activity; also recorded: fully active; Relative activity, inhibition of adult development ([4]; 90 h UV exposure): 100.0%; Relative activity, inhibition of adult development ([4]; 200 h UV exposure): 100.0%; ability to inhibit larvae from reaching the adult stage after UV (in words) ([4]; 400 h UV): fully active; Relative activity, inhibition of adult development ([4]; 400 h UV exposure): 100.0%; degradation following 200 h of exposure to UV radiation (in words) [5]: no degradation; UV lability (in words) [5]: not UV-labile |
| C/C=C(\C)C(=O)OC1CC(OC(C)=O)C2(C(=O)OC)COC3C2C12COC(O)(C(=O)OC)C2C(C)(C12OC1(C)C1CC2OC2OCCC21O)C3O (stereo not shown) [22,23-dihydroazadirachtin] | 0.08 (0.04-0.15) ppm | 6 | 5 | 13 | 4 | 3.4 | 2.8 | 26.7 | 7.4 | 2.3 | less effective | 113.1 | 104.6 | 100.0 | did decline | 72.7 | even greater decline | 49.1 | 103.5 | 100.1 | Number Pupae [2]: 47 Number; activity retained after 90 h of exposure to UV radiation (in words) [3]: retained full activity; activity retained after 400 h of exposure to UV radiation ([3]; 400 h UV): approximately 50%; ability to inhibit pupation after UV (in words) ([3]; up to 90 h UV): not appreciably reduced; Relative activity, inhibition of adult development ([4]; 90 h UV exposure): 103.5%; ability to inhibit larvae from reaching the adult stage after UV (in words) ([4]; 200 h UV): more so; Relative activity, inhibition of adult development ([4]; 200 h UV exposure): 69.0%; Relative activity, inhibition of adult development ([4]; 400 h UV exposure): 74.5%; degradation following 400 h of exposure to UV radiation (in words) [5]: none of the three compounds remained in their original state; kinetics of UV degradation (in words) [5]: first-order reaction; UV lability (in words) [5]: UV-labile |
| C/C=C(\C)C(=O)O[C@@H]1C[C@H](O)[C@]23CO[C@H](C(=O)OC)[C@H]2[C@](C)([C@]24O[C@@]2(C)[C@H]2C[C@@H]4O[C@@H]4OC=C[C@@]42O)[C@H](O)[C@@H]2OC[C@@]1(C(=O)OC)[C@H]23 [deacetylazadirachtinol] |  |  |  |  |  |  |  |  |  |  |  |  |  |  |  |  |  |  |  |  | insect growth inhibitor activity, fold less active than azadirachtin [6]: about 2.5 fold; ecdysis inhibitory activity (in words) [7]: same ecdysis inhibitory activity |
| C/C=C(\C)C(=O)OC1CC(O)C2(C(=O)OC)COC3C2C12COC(O)(C(=O)OC)C2C(C)(C12OC1(C)C1CC2OC2OC=CC21O)C3O (stereo not shown) [3-deacetylazadirachtin] | 0.09 (0.05-0.17) ppm | 10 | 10 | 13 | 4 | 5.9 | 5.9 | 33.1 | 7.7 | 2.4 | less effective | 115.2 | 135.0 | 139.5 | did decline | 86.8 | even greater decline | 41.0 | 103.2 | 106.3 | Number Pupae [2]: 56 Number; activity retained after 90 h of exposure to UV radiation (in words) [3]: retained full activity; activity retained after 400 h of exposure to UV radiation ([3]; 400 h UV): approximately 50%; ability to inhibit pupation after UV (in words) ([3]; up to 90 h UV): not appreciably reduced; Relative activity, inhibition of adult development ([4]; 90 h UV exposure): 106.3%; ability to inhibit larvae from reaching the adult stage after UV (in words) ([4]; 200 h UV): remained substantially unchanged until 400 h of irradiation; Relative activity, inhibition of adult development ([4]; 200 h UV exposure): 96.0%; Relative activity, inhibition of adult development ([4]; 400 h UV exposure): 72.3%; degradation following 400 h of exposure to UV radiation (in words) [5]: none of the three compounds remained in their original state; kinetics of UV degradation (in words) [5]: first-order reaction; UV lability (in words) [5]: UV-labile |
